# Reference: patent US20230085307A1, “PYRIDAZINONE COMPOUND AND HERBICIDE” (NISSAN CHEMICAL CORPORATION, priority 2019, published 2023)
# Tests used:
# southern crabgrass = test: Test Example 5: herbicidal effect by foliage application, plastic box (Table 20, symbol F); type: in vivo, southern crabgrass (Digitaria ciliaris); conditions: 320 g/ha, evaluated three weeks after application
# How it was run: (§1)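 Sow seeds spot-wise in sterilized diluvial soil; cover with ~1.5 cm soil. Grow 14 days in greenhouse, 25° C. to 30° C. Spray foliage with emulsion diluted to predetermined amount. Rate effect after 3 weeks.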
# green foxtail = test: Test Example 5: herbicidal effect by foliage application, plastic box (Table 20, symbol G); type: in vivo, green foxtail (Setaria viridis); conditions: 320 g/ha, evaluated three weeks after application
# How it was run: as §1
# wild oat = test: Test Example 5: herbicidal effect by foliage application, plastic box (Table 20, symbol I); type: in vivo, wild oat (Avena fatua); conditions: 320 g/ha, evaluated three weeks after application
# How it was run: as §1
# oval-leafed pondweed [1] = test: Test Example 1: herbicidal activity, application before weed generation under submerged conditions (Table 16, symbol C); type: in vivo, oval-leafed pondweed (Monochoria vaginalis)
# How it was run: (§2)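 Emulsion formulation, water-diluted to set dose, was put onto the flooded surface (4 cm depth, alluvial soil) the same day weeds were sown and 2.5-leaf rice transplanted. After 3 weeks at 25-30 °C under glass, each species was rated 0 (≤5% kill) to 5 (≥90% kill).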
# oval-leafed pondweed [2] = test: Test Example 2: herbicidal activity, application during weed generation under submerged conditions (Table 17, symbol C); type: in vivo, oval-leafed pondweed (Monochoria vaginalis); conditions: AAH 320 g/ha; application during weed generation, submerged conditions
# How it was run: (§3)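 In this pot test, flooded alluvial soil (water depth 4 cm) holds all three species sown as a mixture. Once seedlings have one to two leaves, the compound's emulsion, thinned with water to the intended dose, is poured on the water; grading follows after three weeks on the earlier criteria.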
# redroot pigweed = test: Test Example 5: herbicidal effect by foliage application, plastic box (Table 20, symbol N); type: in vivo, redroot pigweed (Amaranthus retroflexus); conditions: 320 g/ha, evaluated three weeks after application
# How it was run: as §1
# velvetleaf = test: Test Example 5: herbicidal effect by foliage application, plastic box (Table 20, symbol M); type: in vivo, velvetleaf (Abutilon theophrasti); conditions: 320 g/ha, evaluated three weeks after application
# How it was run: as §1
# barnyard grass [3] = test: Test Example 3: herbicidal effect by foliage application, Wagner pot (Table 18, symbol H); type: in vivo, barnyard grass (Echinochloa crus-galli)
# How it was run: (§4)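 Plants were sown in alluvial soil held under 0.1–0.5 cm standing water and grown 14 days in a greenhouse at 25–30 °C. An emulsifiable formulation, water-diluted to the set dose, was then sprayed onto the foliage, and effects were scored three weeks later using previously defined criteria.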
# rice flat sedge = test: Test Example 3: herbicidal effect by foliage application, Wagner pot (Table 18, symbol E); type: in vivo, rice flat sedge (Cyperus iria)
# How it was run: as §4
# persian speedwell = test: Test Example 5: herbicidal effect by foliage application, plastic box (Table 20, symbol R); type: in vivo, Persian speedwell (Veronica persica); conditions: 320 g/ha, evaluated three weeks after application
# How it was run: as §1
# Italian ryegrass = test: Test Example 5: herbicidal effect by foliage application, plastic box (Table 20, symbol K); type: in vivo, Italian ryegrass (Lolium multiflorum); conditions: 320 g/ha, evaluated three weeks after application
# How it was run: as §1
# chickweed = test: Test Example 5: herbicidal effect by foliage application, plastic box (Table 20, symbol P); type: in vivo, common chickweed (Stellaria media); conditions: 320 g/ha, evaluated three weeks after application
# How it was run: as §1
# barnyard grass [4] = test: Test Example 5: herbicidal effect by foliage application, plastic box (Table 20, symbol H); type: in vivo, barnyard grass (Echinochloa crus-galli); conditions: 320 g/ha, evaluated three weeks after application
# How it was run: as §1
# windgrass = test: Test Example 5: herbicidal effect by foliage application, plastic box (Table 20, symbol L); type: in vivo, windgrass (Apera spica-venti); conditions: 320 g/ha, evaluated three weeks after application
# How it was run: as §1
# late watergrass [5] = test: Test Example 1: herbicidal activity, application before weed generation under submerged conditions (Table 16, symbol A); type: in vivo, late watergrass (Echinochloa oryzicola)
# How it was run: as §2
# blackgrass = test: Test Example 5: herbicidal effect by foliage application, plastic box (Table 20, symbol J); type: in vivo, blackgrass (Alopecurus myosuroides); conditions: 320 g/ha, evaluated three weeks after application
# How it was run: as §1
# Japanese bulrush [6] = test: Test Example 1: herbicidal activity, application before weed generation under submerged conditions (Table 16, symbol B); type: in vivo, Japanese bulrush (Schoenoplectus juncoides)
# How it was run: as §2
# Japanese bulrush [7] = test: Test Example 2: herbicidal activity, application during weed generation under submerged conditions (Table 17, symbol B); type: in vivo, Japanese bulrush (Schoenoplectus juncoides); conditions: AAH 320 g/ha; application during weed generation, submerged conditions
# How it was run: as §3
# Chinese sprangletop = test: Test Example 3: herbicidal effect by foliage application, Wagner pot (Table 18, symbol D); type: in vivo, chinese sprangletop (Leptochloa chinensis)
# How it was run: as §4
# lambsquarters = test: Test Example 5: herbicidal effect by foliage application, plastic box (Table 20, symbol O); type: in vivo, lambsquarters (Chenopodium album); conditions: 320 g/ha, evaluated three weeks after application
# How it was run: as §1
# late watergrass [8] = test: Test Example 2: herbicidal activity, application during weed generation under submerged conditions (Table 17, symbol A); type: in vivo, late watergrass (Echinochloa oryzicola); conditions: AAH 320 g/ha; application during weed generation, submerged conditions
# How it was run: as §3
# [9] = amount of applied herbicide 320 g/ha
# [10] = foliage application after 14-day growth
compound,measurement,setting,value
Cc1nn(C)c(=O)c(-c2c(-c3ccc(C(=O)O)cc3)sc3ccc(Cl)cc23)c1O [2-113],herbicidal effect on F: southern crabgrass,southern crabgrass; foliage application,0 (Herbicidal rate of 5% or less (almost no effect))
same,herbicidal effect on G: green foxtail,green foxtail; foliage application,0 (Herbicidal rate of 5% or less (almost no effect))
same,herbicidal effect on I: wild oat,wild oat; foliage application,0 (Herbicidal rate of 5% or less (almost no effect))
same,Herbicidal effect on C: oval-leafed pondweed (grade 0-5),oval-leafed pondweed [1]; 320 g/ha applied herbicide,0 (Herbicidal rate of 5% or less (almost no effect))
same,"herbicidal effect rating, C: oval-leafed pondweed",oval-leafed pondweed [2],0 (Herbicidal rate of 5% or less (almost no effect))
same,herbicidal effect on N: redroot pigweed,redroot pigweed; foliage application,0 (Herbicidal rate of 5% or less (almost no effect))
same,herbicidal effect on M: velvetleaf,velvetleaf; foliage application,0 (Herbicidal rate of 5% or less (almost no effect))
same,herbicidal effect on H: barnyard grass,barnyard grass [3]; [9],3 (Herbicidal rate of 40% or more and less than 70%)
same,herbicidal effect on E: rice flat sedge,rice flat sedge; [9],0 (Herbicidal rate of 5% or less (almost no effect))
same,herbicidal effect on R: persian speedwell,persian speedwell; foliage application,0 (Herbicidal rate of 5% or less (almost no effect))
same,herbicidal effect on K: Italian ryegrass,Italian ryegrass; foliage application,0 (Herbicidal rate of 5% or less (almost no effect))
same,herbicidal effect on P: chickweed,chickweed; foliage application,0 (Herbicidal rate of 5% or less (almost no effect))
same,herbicidal effect on H: barnyard grass,barnyard grass [4]; foliage application,0 (Herbicidal rate of 5% or less (almost no effect))
same,herbicidal effect on L: windgrass,windgrass; foliage application,0 (Herbicidal rate of 5% or less (almost no effect))
same,Herbicidal effect on A: late watergrass (grade 0-5),late watergrass [5]; 320 g/ha applied herbicide,3 (Herbicidal rate of 40% or more and less than 70%)
same,herbicidal effect on J: blackgrass,blackgrass; foliage application,0 (Herbicidal rate of 5% or less (almost no effect))
same,Herbicidal effect on B: Japanese bulrush (grade 0-5),Japanese bulrush [6]; 320 g/ha applied herbicide,0 (Herbicidal rate of 5% or less (almost no effect))
same,"herbicidal effect rating, B: Japanese bulrush",Japanese bulrush [7],0 (Herbicidal rate of 5% or less (almost no effect))
same,herbicidal effect on D: Chinese sprangletop,Chinese sprangletop; [9],1 (Herbicidal rate of 5% or more and less than 20%)
same,herbicidal effect on O: lambsquarters,lambsquarters; foliage application,0 (Herbicidal rate of 5% or less (almost no effect))
same,"herbicidal effect rating, A: late watergrass",late watergrass [8],2 (Herbicidal rate of 20% or more and less than 40%)
Cc1nn(C)c(=O)c(-c2c(-c3ccc(C(F)(F)F)cc3)sc3cc(Cl)ccc23)c1O [3-145],herbicidal effect on F: southern crabgrass (evaluation grade 0-5),southern crabgrass; [10],0 (Herbicidal rate of 5% or less (almost no effect))
same,herbicidal effect on G: green foxtail (evaluation grade 0-5),green foxtail; [10],2 (Herbicidal rate of 20% or more and less than 40%)
same,herbicidal effect on I: wild oat (evaluation grade 0-5),wild oat; [10],0 (Herbicidal rate of 5% or less (almost no effect))
same,"Herbicidal effect, C: oval-leafed pondweed",oval-leafed pondweed [1]; [9],0 (Herbicidal rate of 5% or less (almost no effect))
same,"herbicidal effect rating, C: oval-leafed pondweed",oval-leafed pondweed [2],0 (Herbicidal rate of 5% or less (almost no effect))
same,herbicidal effect on N: redroot pigweed (evaluation grade 0-5),redroot pigweed; [10],3 (Herbicidal rate of 40% or more and less than 70%)
same,herbicidal effect on M: velvetleaf (evaluation grade 0-5),velvetleaf; [10],3 (Herbicidal rate of 40% or more and less than 70%)
same,herbicidal effect on barnyard grass (H),barnyard grass [3]; 320 g/ha,3 (Herbicidal rate of 40% or more and less than 70%)
same,herbicidal effect on rice flat sedge (E),rice flat sedge; 320 g/ha,4 (Herbicidal rate of 70% or more and less than 90%)
same,herbicidal effect on R: persian speedwell (evaluation grade 0-5),persian speedwell; [10],0 (Herbicidal rate of 5% or less (almost no effect))
same,herbicidal effect on K: Italian ryegrass (evaluation grade 0-5),Italian ryegrass; [10],0 (Herbicidal rate of 5% or less (almost no effect))
same,herbicidal effect on P: chickweed (evaluation grade 0-5),chickweed; [10],0 (Herbicidal rate of 5% or less (almost no effect))
same,herbicidal effect on H: barnyard grass (evaluation grade 0-5),barnyard grass [4]; [10],0 (Herbicidal rate of 5% or less (almost no effect))
same,herbicidal effect on L: windgrass (evaluation grade 0-5),windgrass; [10],5 (Herbicidal rate of 90% or more (almost completely withered))
same,"Herbicidal effect, A: late watergrass",late watergrass [5]; [9],3 (Herbicidal rate of 40% or more and less than 70%)
same,herbicidal effect on J: blackgrass (evaluation grade 0-5),blackgrass; [10],0 (Herbicidal rate of 5% or less (almost no effect))
same,"Herbicidal effect, B: Japanese bulrush",Japanese bulrush [6]; [9],2 (Herbicidal rate of 20% or more and less than 40%)
same,"herbicidal effect rating, B: Japanese bulrush",Japanese bulrush [7],2 (Herbicidal rate of 20% or more and less than 40%)
same,herbicidal effect on Chinese sprangletop (D),Chinese sprangletop; 320 g/ha,5 (Herbicidal rate of 90% or more (almost completely withered))
same,herbicidal effect on O: lambsquarters (evaluation grade 0-5),lambsquarters; [10],3 (Herbicidal rate of 40% or more and less than 70%)
same,"herbicidal effect rating, A: late watergrass",late watergrass [8],3 (Herbicidal rate of 40% or more and less than 70%)
